Molecular target: T1, human MMP-13 catalytic domain (hMMP-13CD) (Homo sapiens, UniProt P45452)
T1 construct: a human MMP-13 catalytic domain (“hMMP-13CD”)
Experiment: Inhibition of MMP-13 catalytic domain (thiopeptolide substrate hydrolysis, IC50)
Assay type: biochemical
Source text: The assays measure the amount by which a test compound reduces the hydrolysis of a thiopeptolide substrate catalyzed by a matrix metalloproteinase enzyme. Such assays are described in detail by Ye et al., in Biochemistry, 1992;31(45):11231-11235, which is incorporated herein by reference. One such assay is described below in Biological Method 1.
Some of the particular methods described below use the catalytic domain of the MMP-13 enzyme, namely matrix metalloproteinase-13 catalytic domain (“MMP-13CD”), rather than the corresponding full-length enzyme, MMP-13. It has been shown previously by Ye Qi-Zhuang, Hupe D., and Johnson L. (Current Medicinal Chemistry, 1996;3:407-418) that inhibitor activity against a catalytic domain of an MMP is predictive of the inhibitor activity against the respective full-length MMP enzyme.
Thiopeptolide substrates show virtually no decomposition or hydrolysis at or below neutral pH in the absence of a matrix metalloproteinase enzyme. A typical thiopeptolide substrate commonly utilized for assays is Ac-Pro-Leu-Glythioester-Leu-Leu-Gly-OEt. […] The change in absorbance at 405 nm is monitored on a Thermo Max microplate reader (molecular Devices, Menlo Park, Calif.) at room temperature (22° C.). […]
Some representative compounds of Formula I have been evaluated for their ability to inhibit MMP-13. […]

IC50: > 50 µM
Compound: O=C(O)c1ccc(Cn2ccc3ccc(C#CCn4ccnn4)cc3c2=O)cc1 [4-[1-oxo-7-(3-[1,2,3]triazol-1-ylprop-1-ynyl)-1H-isoquinolin-2-ylmethyl]benzoic acid]

From patent publication US6974822B2, “3-isoquinolinone derivatives as matrix metalloproteinase inhibitors” (Warner-Lambert Company LLC, priority 2002, dated 2005)
